Ends that are not written are not given here.
Tests used:
[1] = system: methicillin resistant Staphylococcus aureus (MRSA) biofilm; details: approximate peptide concentration […] (around 3 μg/ml); compared to untreated samples
Summary of the method: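 Peptide was present from inoculation onward, with bacteria seeded at 1/100 from overnight cultures into BM2 biofilm medium or Luria Broth. Crystal violet staining of surface-attached cells (A595) quantified biofilm reduction at 22–46 h. K. pneumoniae was additionally screened in a real-time Bioflux flow device for some peptides.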

[2] = system: human peripheral blood mononuclear cells (MCP-1); test: SPOT-synthesized derivative screen: production of chemokine MCP-1; assay type: cell-based; details: Table 12, No LPS, human PBMC, peptide at ~18-24 μM; for MCP1: background subtracted 139 (HH2 derivatives), 170 (1018 derivatives), 242 (1002 and hybrid peptides) pg/ml
Summary of the method: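 MCP-1 was quantified by capture ELISA in cleared culture supernatants of treated human peripheral blood mononuclear cells. Cells came from heparinized volunteer blood via Ficoll gradient and were seeded at 0.75 to 1×10^6 cells/ml (37 °C, 5% CO2).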

[3] = system: LPS-stimulated human peripheral blood mononuclear cells (IL1-β); assay type: cell-based; details: Table 12, cells stimulated with 10 ng/ml LPS; for IL1β Production: LPS alone 1313 (HH2 derivatives), 1927 (1018 derivatives), 2455 (1002 and hybrid peptides) pg/ml

Substance | % Biofilm inhibition [1] | Fold increase in MCP1 cf. untreated cells [2] | MCP1 [2] | Fold change in IL1β relative to no peptide LPS stimulated cells [3] | IL1β Production [3]
HH2-G1: single substituted HH2 peptide (GQLRIRVAVIRA-NH2) | 65% | 1.9 | 157 pg/mL | 1.17 | 1533 pg/mL
1002-L3: single substituted 1002 peptide (VQLWLIVWRIRK-NH2) [Peptide 1002-L3] | 59% | 1.4 | 106.3 pg/mL | 0.05 | 127 pg/mL
1002-R6: single substituted 1002 peptide (VQRWLRVWRIRK-NH2) [Peptide 1002-R6] | 13% | 1.0 | 1.8 pg/mL | 0.25 | 605 pg/mL
1018-G8: single substituted 1018 peptide (VRLIVAVGIWRR-NH2) [Peptide 1018-G8] | 54% | 1.3 | 57 pg/mL | 0.10 | 127 pg/mL
1018-W1: single substituted 1018 peptide (WRLIVAVRIWRR-NH2) [Peptide 1018-W1] | 68% | 5.0 | 684 pg/mL | 0.16 | 204 pg/mL
HH2-Q7: single substituted HH2 peptide (VQLRIRQAVIRA-NH2) | 21% | 3.9 | 488 pg/mL | 1.00 | 1316 pg/mL
1018-L9: single substituted 1018 peptide (VRLIVAVRLWRR-NH2) [Peptide 1018-L9] | 52% | 1.4 | 66 pg/mL | 0.13 | 171 pg/mL
HH2-W4: single substituted HH2 peptide (VQLWIRVAVIRA-NH2) | 58% | 24 | 3945 pg/mL | 0.30 | 399 pg/mL
HH2-V12: single substituted HH2 peptide (VQLRIRVAVIRV-NH2) | 65% | 33 | 5492 pg/mL | 0.85 | 1119 pg/mL
HH2-A6: single substituted HH2 peptide (VQLRIAVAVIRA-NH2) | 41% | 1.8 | 137 pg/mL | 1.06 | 1391 pg/mL
1002-R2: single substituted 1002 peptide (VRRWLIVWRIRK-NH2) [Peptide 1002-R2] | 60% | 4.5 | 840.0 pg/mL | 0.05 | 127 pg/mL
HH2-Q12: single substituted HH2 peptide (VQLRIRVAVIRQ-NH2) | 72% | 13 | 2034 pg/mL | 0.73 | 965 pg/mL
1002-V11: single substituted 1002 peptide (VQRWLIVWRIVK-NH2) [Peptide 1002-V11] | 68% | 3.2 | 541.2 pg/mL | 0.05 | 127 pg/mL
1002-K8: single substituted 1002 peptide (VQRWLIVKRIRK-NH2) [Peptide 1002-K8] | 0% | 0.9 | -36.2 pg/mL | 0.66 | 1632 pg/mL
HH2-A2: single substituted HH2 peptide (VALRIRVAVIRA-NH2) | 69% | 3.8 | 471 pg/mL | 1.23 | 1612 pg/mL
1018-I3: single substituted 1018 peptide (VRIIVAVRIWRR-NH2) [Peptide 1018-I3] | 68% | 0.7 | -50 pg/mL | 0.12 | 156 pg/mL

Substance | % Biofilm inhibition [1] | Fold increase in MCP1 cf. untreated cells [2] | MCP1 [2] | Fold change in IL1β relative to no peptide LPS stimulated cells [3] | IL1β Production [3]
1018-I2: single substituted 1018 peptide (VILIVAVRIWRR-NH2) [Peptide 1018-I2] | 61% | 44 | 7342 pg/mL | 0.42 | 557 pg/mL
1002-K1: single substituted 1002 peptide (KQRWLIVWRIRK-NH2) [Peptide 1002-K1] | 75% | 26.4 | 6146.9 pg/mL | 0.05 | 127 pg/mL
HH2-L8: single substituted HH2 peptide (VQLRIRVLVIRA-NH2) | 50% | 107 | 17953 pg/mL | 0.55 | 725 pg/mL
1002-W11: single substituted 1002 peptide (VQRWLIVWRIWK-NH2) [Peptide 1002-W11] | 37% | 0.9 | -36.2 pg/mL | 0.05 | 127 pg/mL
1002-A2: single substituted 1002 peptide (VARWLIVWRIRK-NH2) [Peptide 1002-A2] | 68% | 2.0 | 245.4 pg/mL | 0.05 | 127 pg/mL
1002-V2: single substituted 1002 peptide (VVRWLIVWRIRK-NH2) [Peptide 1002-V2] | 72% | 22.5 | 5209.2 pg/mL | 0.05 | 127 pg/mL
HH2-A9: single substituted HH2 peptide (VQLRIRVAAIRA-NH2) | 51% | 1.9 | 157 pg/mL | 1.46 | 1923 pg/mL
HH2-A5: single substituted HH2 peptide (VQLRARVAVIRA-NH2) | 45% | 1.3 | 59 pg/mL | 1.60 | 2095 pg/mL
1018-I10: single substituted 1018 peptide (VRLIVAVRIIRR-NH2) [Peptide 1018-I10] | 58% | 1.3 | 56 pg/mL | 0.10 | 135 pg/mL
HH2-W12: single substituted HH2 peptide (VQLRIRVAVIRW-NH2) | 58% | 44 | 7325 pg/mL | 0.32 | 420 pg/mL
HH2-G8: single substituted HH2 peptide (VQLRIRVGVIRA-NH2) | 54% | 1.9 | 157 pg/mL | 1.02 | 1344 pg/mL
HH2-G4: single substituted HH2 peptide (VQLGIRVAVIRA-NH2) | 40% | 148 | 25045 pg/mL | 1.21 | 1582 pg/mL
HH2-Q10: single substituted HH2 peptide (VQLRIRVAVQRA-NH2) | 61% | 31 | 5057 pg/mL | 0.90 | 1180 pg/mL
HH2-L1: single substituted HH2 peptide (LQLRIRVAVIRA-NH2) | 72% | 4.8 | 654 pg/mL | 0.94 | 1234 pg/mL
1002-K5: single substituted 1002 peptide (VQRWKIVWRIRK-NH2) [Peptide 1002-K5] | 79% | 3.4 | 592.6 pg/mL | 0.14 | 339 pg/mL
